Data reported in patent publication US20060052413A1, “Novel piperidine derivatives as modulators of chemokine receptor ccr5” (priority 2002, published 2006).

Target: recombinant human CCR5 receptor (Homo sapiens, UniProt P51681)
Test: MIP-1α radioligand binding assay (scintillation proximity), CHO cell membranes
Conditions: displacement of 0.1 nM iodinated MIP-1α; negative log10 of IC50; average if tested more than once
Procedure: The ability of compounds to inhibit the binding of MIP-1α was assessed by an in vitro radioligand binding assay. Membranes were prepared from Chinese hamster ovary cells which expressed the recombinant human CCR5 receptor. These membranes were incubated with 0.1 nM iodinated MIP-1α, scintillation proximity beads and various concentrations of the compounds of the invention in 96-well plates. The amount of iodinated MIP-1α bound to the receptor was determined by scintillation counting. Competition curves were obtained for compounds and the concentration of compound which displaced 50% of bound iodinated MIP-1α was calculated (IC50).
In Table II the results are presented as Pic50 values. A Pic50 value is the negative log (to base 10) of the IC50 result, so an IC50 of 1 μM (that is 1×10^−6M) gives a Pic50 of 6. If a compound was tested more than once then the data below is an average of the probative tests results.

recombinant human CCR5 receptor, sequence (P51681 whole entry): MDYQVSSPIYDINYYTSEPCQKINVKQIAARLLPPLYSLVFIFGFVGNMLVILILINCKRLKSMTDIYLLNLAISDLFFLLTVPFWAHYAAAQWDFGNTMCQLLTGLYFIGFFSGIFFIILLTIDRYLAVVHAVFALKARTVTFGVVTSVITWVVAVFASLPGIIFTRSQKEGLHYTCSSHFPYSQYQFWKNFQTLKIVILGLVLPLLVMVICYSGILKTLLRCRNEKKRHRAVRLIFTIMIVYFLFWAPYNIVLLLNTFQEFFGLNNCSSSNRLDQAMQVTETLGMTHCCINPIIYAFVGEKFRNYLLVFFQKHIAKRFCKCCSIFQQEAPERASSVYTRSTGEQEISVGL

IC50: 97.7 nM
Compound: CCS(=O)(=O)N1CCN(C(CCN2CCC(CCCc3ccccc3)CC2)c2ccccc2)CC1 (stereo not shown) [Compound 3]
